Data on 21 compounds can be found in US11642336B2, “5-HT2A agonists for use in treatment of depression” (priority 2019, dated 2023).

One test deals with human 5-HT2A (Homo sapiens (Human), UniProt P28223). As to the kind of experiment: cell-based. The class given is cell-based. Particulars: for Selectivity EC50 5-HT2C/EC50 5-HT2A: Ca2+/Fluo-4 assay, bounds are conservative estimates; for EC50: agonist potency, n = 3-4; for loss of potency at 5-HT2A compared to compound 8 (factor): nitrogen substituents (tertiary amines).
The next test has as its target 5-HT2C (Homo sapiens (Human), UniProt P28335). Nature of the test: Ca2+/Fluo-4 assay, stable h5-HT2C-HEK293 cell line.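 For all read-outs here: Agonist-induced intracellular Ca2+ rise read by Fluo-4 fluorescence in HEK293 cells stably expressing the human 5-HT2C receptor, each compound run in duplicate on three or more occasions.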 Format: cell-based. Particulars: for 5-HT2C Rmax ± S.E.M: % of the Rmax of 5-HT; for EC50: agonist potency, n = 3-4; for 5-HT2C agonist activity (n.a./w.a.): tested up to 50 μM.
Where [1] appears, read: read-out: 5-HT2A [pEC50 ± S.E.M.] (converted).
The mark [2] stands for this setting: read-out: 5-HT2C [pEC50 ± S.E.M.] (converted).

Where a name gives a salt, the structure may show the parent alone. Read-outs that look alike come from different tables or passages of the source. Marks after values point to notes of the source that are not given here. Where only a bound is given, the exact number is not on record here.

5-HT2C, sequence (P28335 whole entry, looked up): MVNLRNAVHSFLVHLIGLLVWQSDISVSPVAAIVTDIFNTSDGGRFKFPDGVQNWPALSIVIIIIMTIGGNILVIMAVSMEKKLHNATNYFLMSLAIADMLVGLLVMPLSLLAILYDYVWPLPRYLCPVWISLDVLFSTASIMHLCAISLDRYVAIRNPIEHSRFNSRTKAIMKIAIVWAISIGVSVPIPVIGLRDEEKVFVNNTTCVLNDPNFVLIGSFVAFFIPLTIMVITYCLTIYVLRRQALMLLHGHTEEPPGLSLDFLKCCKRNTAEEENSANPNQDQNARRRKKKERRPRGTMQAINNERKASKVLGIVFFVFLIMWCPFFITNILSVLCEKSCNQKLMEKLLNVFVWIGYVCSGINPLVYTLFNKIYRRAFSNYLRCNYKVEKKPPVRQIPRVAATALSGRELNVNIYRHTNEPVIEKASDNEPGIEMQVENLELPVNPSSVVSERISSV
Method for 5-HT2C: The functional properties of the compounds were characterised at stable HEK293 cell lines stably expressing the human 5-HT2A receptor or human 5-HT2C receptor in the Ca^2+/Fluo-4 assay essentially as previously described.^10 Briefly, the cells were split into poly-D-lysine-coated black 96-well plates with clear bottoms (6×10^4 cells/well). The following day the culture medium was aspirated and the cells were incubated in 50 μl assay buffer [Hanks Buffered Saline Solution containing 20 mM HEPES, 1 mM CaCl2, 1 mM MgCl2, 2.5 mM probenecid, pH 7.4] supplemented with 6 mM Fluo-4/AM at 37° C. for 1 hour. Next, the buffer was aspirated, the cells were washed once with 100 μl assay buffer, and then 100 μl assay buffer was added to the cells (in the antagonist experiments the compound was added at this point). […] The compounds were characterized in duplicate at least three times at each cell line.

As to `COc1cc(C(F)(F)F)c(OC)cc1C1CNC1.Cl` [Compound 2, 3-(2,5-dimethoxy-4-(trifluoromethyl)phenyl)azetidine Hydrochloride], the “5-HT2A Rmax ± S.E.M” value at human 5-HT2A (% of the Rmax of 5-HT) was 95 ± 2%. Further, the “Selectivity EC50 5-HT2C/EC50 5-HT2A” value on human 5-HT2A was 5.2. For the same compound, the EC50 at human 5-HT2A (setting [1]) is 0.001 µM; at 5-HT2C (read-out: 5-HT2C EC50), 0.0052 µM. Further, the “5-HT2C Rmax ± S.E.M” value on 5-HT2C was determined as 87 ± 4%.

In the case of `COc1cc(C(F)(F)F)ccc1[C@H]1CCCNC1` [Compound 52, (R)-3-(2-methoxy-4-(trifluoromethyl)phenyl)piperidine hydrochloride], the “5-HT2A Rmax ± S.E.M” value at human 5-HT2A (% of the Rmax of 5-HT) was determined as 77 ± 2%. For the same compound, the EC50 on human 5-HT2A (read-out: 5-HT2A EC50) is 0.48 µM; at 5-HT2C (read-out: 5-HT2C EC50), 1.4 µM.

With `COc1cc([C@H]2CCCNC2)c(OC)cc1Br` [Compound 11, (R)-3-(4-bromo-2,5-dimethoxyphenyl)piperidine], the EC50 at human 5-HT2A (read-out: 5-HT2A EC50) was found to be 0.37 µM; at 5-HT2C (read-out: 5-HT2C EC50), 1.9 µM.

Regarding `COc1cc(C2CNC2)c(OC)cc1Br.Cl` [Compound 1, 3-(4-bromo-2,5-dimethoxyphenyl)azetidine hydrochloride], the “5-HT2A Rmax ± S.E.M” value on human 5-HT2A (% of the Rmax of 5-HT) was 97 ± 3%. On human 5-HT2A, the “Selectivity EC50 5-HT2C/EC50 5-HT2A” value is given as 3.6. Also, the EC50 was 0.00158 µM at human 5-HT2A (setting [1]) and 0.0058 µM at 5-HT2C (read-out: 5-HT2C EC50). The “5-HT2C Rmax ± S.E.M” value at 5-HT2C stood at 90 ± 3%.

Turning to `COc1cc(C(F)(F)F)c(OC)cc1[C@@H]1CCNC1` [Compound 6, (S)-3-(2,5-dimethoxy-4-(trifluoromethyl)phenyl)pyrrolidine], at human 5-HT2A (% of the Rmax of 5-HT), the “5-HT2A Rmax ± S.E.M” value is recorded as 35 ± 4%. In addition, at human 5-HT2A, the “Selectivity EC50 5-HT2C/EC50 5-HT2A” value is listed as 3.5. The results for the EC50 on human 5-HT2A (read-out: 5-HT2A EC50) and on 5-HT2C (setting [2]) were 0.0054 µM and 0.0191 µM, respectively. Moreover, the “5-HT2C Rmax ± S.E.M” value on 5-HT2C came to 28 ± 2%.

As to `COc1cc(C(F)(F)F)c(OC)cc1[C@H]1CCNC1` [Compound 5, (R)-3-(2,5-dimethoxy-4-(trifluoromethyl)phenyl)pyrrolidine], the “5-HT2A Rmax ± S.E.M” value at human 5-HT2A (% of the Rmax of 5-HT) amounted to 45 ± 1%. On human 5-HT2A, the “Selectivity EC50 5-HT2C/EC50 5-HT2A” value is 3.7. The figures for the EC50 on human 5-HT2A (read-out: 5-HT2A EC50), at human 5-HT2A (setting [1]) and on 5-HT2C (setting [2]) were 0.011 µM, 0.0105 µM and 0.0407 µM, respectively. Also, on 5-HT2C, the “5-HT2C Rmax ± S.E.M” value came to 65 ± 4%.

For `COc1cc([C@H]2CCCNC2)c(OC)cc1SC` [Compound 17, (R)-3-(2,5-dimethoxy-4-(methylthio)phenyl)piperidine hydrochloride], the EC50 was 0.18 µM at human 5-HT2A (read-out: 5-HT2A EC50), 0.178 µM on human 5-HT2A (setting [1]), 2.3 µM at 5-HT2C (read-out: 5-HT2C EC50) and 2.34 µM at 5-HT2C (setting [2]).

As for `COc1cc(C(F)(F)F)c(OC)cc1[C@@H]1CCCN(C)C1` [Compound 61, (S)-3-(2,5-dimethoxy-4-(trifluoromethyl)phenyl)-1-methylpiperidine], on human 5-HT2A (% of the Rmax of 5-HT), the “5-HT2A Rmax ± S.E.M” value was 19 ± 2%. Besides, the EC50 at human 5-HT2A (read-out: 5-HT2A EC50) was 0.39 µM; on human 5-HT2A (setting [1]) it was 0.398 µM; on 5-HT2C (read-out: 5-HT2C EC50) it was 0.92 µM. For the same compound, on human 5-HT2A, the “loss of potency at 5-HT2A compared to compound 8 (factor)” value was roughly 20.

As to `COc1cc(C(F)(F)F)c(OC)cc1[C@H]1CCCN(C)C1` [Compound 60, (R)3-(2,5-dimethoxy-4-(trifluoromethyl)phenyl)-1-methylpiperidine], the “5-HT2A Rmax ± S.E.M” value on human 5-HT2A (% of the Rmax of 5-HT) amounted to 53 ± 8%. Moreover, the EC50 on human 5-HT2A (read-out: 5-HT2A EC50) worked out at 1.1 µM. At 5-HT2C, the “5-HT2C agonist activity (n.a./w.a.)” value is on record as “w.a”.

For `CCSc1cc([C@H]2CCCNC2)c(OC)cc1C(F)(F)F.Cl` [Compound 46, (R)-3-(2-methoxy-5-(ethylthio)-4-(trifluoromethyl)phenyl)piperidine hydrochloride], the “5-HT2A Rmax ± S.E.M” value at human 5-HT2A (% of the Rmax of 5-HT) was 97 ± 2%. The “Selectivity EC50 5-HT2C/EC50 5-HT2A” value at human 5-HT2A is given as 7.4. In addition, the EC50 on human 5-HT2A (read-out: 5-HT2A EC50) was 0.15 µM; on human 5-HT2A (setting [1]), 0.145 µM; on 5-HT2C (read-out: 5-HT2C EC50), 1.1 µM; at 5-HT2C (setting [2]), 1.07 µM. In addition, the “5-HT2C Rmax ± S.E.M” value on 5-HT2C stood at 53 ± 5%.

As for `COc1cc([C@H]2CCCNC2)c(OC)cc1C#N` [Compound 15, (R)-2,5-dimethoxy-4-(piperidin-3-yl)benzonitrile], the EC50 at human 5-HT2A (read-out: 5-HT2A EC50) was 2.2 µM; on 5-HT2C (read-out: 5-HT2C EC50), roughly 10 µM. Also, at 5-HT2C, the “5-HT2C Rmax ± S.E.M” value is given as ~13-17^c %.

Regarding `CCOc1cc(C(F)(F)F)c(OC)cc1[C@H]1CCCNC1.Cl` [Compound 29, (R)-3-(2-ethoxy-5-methoxy-4-(trifluoromethyl)phenyl)piperidine hydrochloride], on human 5-HT2A (% of the Rmax of 5-HT), the “5-HT2A Rmax ± S.E.M” value is recorded as 77 ± 7%. The figures for the EC50 on human 5-HT2A (read-out: 5-HT2A EC50), at 5-HT2C (read-out: 5-HT2C EC50) and on 5-HT2C (setting [2]) were 0.41 µM, 2.7 µM and 2.75 µM, respectively.

Turning to `CCN1CCC[C@H](c2cc(OC)c(C(F)(F)F)cc2OC)C1` [Compound 58, (R)-3-(2,5-dimethoxy-4-(trifluoromethyl)phenyl)-1-ethylpiperidine], on human 5-HT2A (tested up to 50 μM), the “5-HT2A agonist activity (n.a./w.a.)” value is “w.a. [@ 2-10-50”. Further, on 5-HT2C, the “5-HT2C agonist activity (n.a./w.a.)” value is recorded as “w.a”.

On to `COc1cc([C@H]2CCCNC2)c(OC)cc1Cl` [Compound 9, (R)-3-(4-Chloro-2,5-dimethoxyphenyl)piperidine], for which the EC50 is 0.69 µM on human 5-HT2A (read-out: 5-HT2A EC50), 1.8 µM at 5-HT2C (read-out: 5-HT2C EC50) and 1.78 µM at 5-HT2C (setting [2]).

For `Br.COc1cc([C@@H]2CCNC2)c(OC)cc1Br` [Compound 4, (S)-3-(4-bromo-2,5-dimethoxyphenyl)pyrrolidine Hydrobromide], the “5-HT2A Rmax ± S.E.M” value on human 5-HT2A (% of the Rmax of 5-HT) is 39 ± 4%. For the same compound, at human 5-HT2A, the “Selectivity EC50 5-HT2C/EC50 5-HT2A” value is 2.3. Besides, the EC50 on human 5-HT2A (read-out: 5-HT2A EC50) is 0.0077 µM; at 5-HT2C (setting [2]) it was 0.0178 µM. Also, the “5-HT2C Rmax ± S.E.M” value on 5-HT2C worked out at 16 ± 3%.

For `CCN1CCC[C@@H](c2cc(OC)c(C(F)(F)F)cc2OC)C1` [Compound 59, (S)-3-(2,5-dimethoxy-4-(trifluoromethyl)phenyl)-1-ethylpiperidine], the “5-HT2A Rmax ± S.E.M” value on human 5-HT2A (% of the Rmax of 5-HT) came to 44 ± 3%. Also, on human 5-HT2A, the “Selectivity EC50 5-HT2C/EC50 5-HT2A” value is recorded as >30^e and the “loss of potency at 5-HT2A compared to compound 8 (factor)” value is reported as roughly 80. Also, the EC50 at human 5-HT2A (read-out: 5-HT2A EC50) came out at 1.5 µM. Also, on 5-HT2C, the “5-HT2C agonist activity (n.a./w.a.)” value is on record as “w.a”.

Take `COc1cc([C@H]2CCCNC2)c(OC)cc1C` [Compound 23, (R)-3-(2,5-dimethoxy-4-methylphenyl)piperidine hydrochloride]: the EC50 at human 5-HT2A (read-out: 5-HT2A EC50) is 0.26 µM; on human 5-HT2A (setting [1]), 0.263 µM; at 5-HT2C (read-out: 5-HT2C EC50), 1.2 µM.

`COc1cc([C@@H]2CCCNC2)ccc1C(F)(F)F.Cl` [Compound 49, (S)-3-(3-methoxy-4-(trifluoromethyl)phenyl)piperidine Hydrochloride]: the “5-HT2A Rmax ± S.E.M” value on human 5-HT2A (% of the Rmax of 5-HT) is recorded as 65 ± 3%. Moreover, the “Selectivity EC50 5-HT2C/EC50 5-HT2A” value at human 5-HT2A is reported as 0.51. Moreover, the EC50 was 2.5 µM on human 5-HT2A (read-out: 5-HT2A EC50), 2.45 µM on human 5-HT2A (setting [1]), 1.3 µM on 5-HT2C (read-out: 5-HT2C EC50) and 1.26 µM at 5-HT2C (setting [2]). Also, at 5-HT2C, the “5-HT2C Rmax ± S.E.M” value stood at 35 ± 3%.

Take `COc1cc(C(F)(F)F)c(F)cc1[C@H]1CCCNC1.Cl` [Compound 50, (R)-3-(5-fluoro-2-methoxy-4-(trifluoromethyl)phenyl)piperidine hydrochloride]: the “5-HT2A Rmax ± S.E.M” value at human 5-HT2A (% of the Rmax of 5-HT) was found to be 78 ± 6%. The “Selectivity EC50 5-HT2C/EC50 5-HT2A” value at human 5-HT2A is given as 2.8. The EC50 at human 5-HT2A (read-out: 5-HT2A EC50) is 0.64 µM; at 5-HT2C (read-out: 5-HT2C EC50), 1.8 µM; at 5-HT2C (setting [2]), 1.78 µM. Moreover, at 5-HT2C, the “5-HT2C Rmax ± S.E.M” value was found to be 40 ± 8%.

On to `COc1cc(CC(C)N)c(OC)cc1I` (centres unmarked) [drawing 22, reference compound], for which the “5-HT2A Rmax ± S.E.M” value on human 5-HT2A is 88 ± 7%. Moreover, the EC50 on 5-HT2C (5-HT2C [pEC50 ± S.E.M.]) was 0.00339 µM. For the same compound, on 5-HT2C, the “5-HT2C Rmax ± S.E.M” value is recorded as 83 ± 8%.

Regarding `CCc1cc(OC)c([C@H]2CCCNC2)cc1OC` [Compound 31, (R)-3-(4-ethyl-2,5-dimethoxyphenyl)piperidine hydrochloride], the EC50 was 0.11 µM on human 5-HT2A (read-out: 5-HT2A EC50), 0.115 µM at human 5-HT2A (setting [1]) and 0.64 µM on 5-HT2C (read-out: 5-HT2C EC50).
